Laboratory results as given in PubChem BioAssay AID330 (DTP/NCI, 2004).
Several values for one entry are separate records, joined by “and”; a condition that tells them apart may be missing. Equal values may be shown once. Inconclusive results and toxic doses are left out. Rule for the calls: active = survival T/C of 150% or more; inactive = T/C below 125% in these data.

System: P388 leukemia ip, CD2F1 mice, survival T/C
Assay: NCI In Vivo Anticancer Drug Screen. Data for tumor model P388 Leukemia (intraperitoneal) in CD2F1 (CDF1) mice
Conditions: endpoint: median survival time, higher = longer survival
Procedure, shortened: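 Mice carrying the transplanted tumor received test compound or vehicle. Survival was recorded in each group, and the value is the treated-group measurement divided by that of the vehicle-treated control group.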

[1] = dose: 25.0 mg/kg/injection, schedule: Q01DX005 (ip), vehicle: Klucel (hydroxypropylcellulose) (HPC)
[2] = dose: 50.0 mg/kg/injection, schedule: Q01DX005 (ip), vehicle: Klucel (hydroxypropylcellulose) (HPC)
[3] = dose: 100.0 mg/kg/injection, schedule: Q04DX003 (ip), vehicle: Klucel (hydroxypropylcellulose) (HPC)
[4] = dose: 200.0 mg/kg/injection, schedule: Q04DX003 (ip), vehicle: Klucel (hydroxypropylcellulose) (HPC)
[5] = dose: 400.0 mg/kg/injection, schedule: Q04DX003 (ip), vehicle: Klucel (hydroxypropylcellulose) (HPC)
[6] = dose: 60.0 mg/kg/injection, schedule: Q01DX005 (ip), vehicle: saline with Tween-80
[7] = dose: 25.0 mg/kg/injection, schedule: Q01DX009 (ip), vehicle: saline with Tween-80

Measured: T/C

COc1cc(OC)cc(N2C(N)=NC(N)=NC2(C)C)c1
inactive: dose: 12.5 mg/kg/injection, schedule: Q01DX005 (ip), vehicle: Klucel (hydroxypropylcellulose) (HPC) 104 % of control | [1] 105 % of control | [2] 102 % of control and 107 % of control

ON=C1CCC(=NO)CC1
inactive: dose: 25.0 mg/kg/injection, schedule: Q04DX003 (ip), vehicle: saline 101 % of control | dose: 50.0 mg/kg/injection, schedule: Q04DX003 (ip), vehicle: saline 100 % of control | dose: 100.0 mg/kg/injection, schedule: Q04DX003 (ip), vehicle: saline 95 % of control | dose: 200.0 mg/kg/injection, schedule: Q04DX003 (ip), vehicle: saline 107 % of control | dose: 400.0 mg/kg/injection, schedule: Q04DX003 (ip), vehicle: saline 101 % of control

COc1ccc(CS(=O)(=O)c2cncnc2N)cc1OC
inactive: dose: 100.0 mg/kg/injection, schedule: Q01DX001 (ip), vehicle: saline 106 % of control | dose: 200.0 mg/kg/injection, schedule: Q01DX001 (ip), vehicle: saline 96 % of control | dose: 400.0 mg/kg/injection, schedule: Q01DX001 (ip), vehicle: saline 101 % of control

COc1cc(C)c(C(CC(=O)O)CC(=O)N(CCCl)CCCl)cc1C(C)C (configuration not stated)
inactive: dose: 100.0 mg/kg/injection, schedule: Q01DX003 (ip), vehicle: saline 102 % of control | dose: 200.0 mg/kg/injection, schedule: Q01DX003 (ip), vehicle: saline 100 % of control | dose: 400.0 mg/kg/injection, schedule: Q01DX003 (ip), vehicle: saline 100 % of control

O=C(CC(O)(c1ccccc1)c1ccccc1)Sc1ccccc1
inactive: [3] 110 % of control | [4] 105 % of control | [5] 105 % of control

C=CB(OCCC)OCCC
inactive: dose: 50.0 mg/kg/injection, schedule: Q01DX009 (ip), vehicle: saline 92 % of control | dose: 100.0 mg/kg/injection, schedule: Q01DX009 (ip), vehicle: saline 92 % of control | dose: 200.0 mg/kg/injection, schedule: Q01DX009 (ip), vehicle: saline 88 % of control

Cn1c(=O)c2cc(C#N)c(N)nc2n(C)c1=O
inactive: dose: 75.0 mg/kg/injection, schedule: Q01DX009 (ip), vehicle: saline with Tween-80 104 % of control | dose: 150.0 mg/kg/injection, schedule: Q01DX009 (ip), vehicle: saline with Tween-80 96 % of control | dose: 300.0 mg/kg/injection, schedule: Q01DX009 (ip), vehicle: saline with Tween-80 93 % of control

O=C1c2ccccc2C(=O)c2c1cc1c(c2O)OCO1
inactive: [6] 86 % of control | dose: 120.0 mg/kg/injection, schedule: Q01DX005 (ip), vehicle: saline with Tween-80 89 % of control | dose: 240.0 mg/kg/injection, schedule: Q01DX005 (ip), vehicle: saline with Tween-80 91 % of control

CCOC(=O)c1ccc(NC(=O)CS)cc1
inactive: [7] 98 % of control | dose: 50.0 mg/kg/injection, schedule: Q01DX009 (ip), vehicle: saline with Tween-80 99 % of control | dose: 100.0 mg/kg/injection, schedule: Q01DX009 (ip), vehicle: saline with Tween-80 102 % of control | dose: 200.0 mg/kg/injection, schedule: Q01DX009 (ip), vehicle: saline with Tween-80 108 % of control

NC(CSCc1ccccc1)C(=O)O (configuration not stated)
inactive: dose: 50.0 mg/kg/injection, schedule: Q01DX091 (ip), vehicle: Klucel (hydroxypropylcellulose) (HPC) 100 % of control | dose: 100.0 mg/kg/injection, schedule: Q01DX091 (ip), vehicle: Klucel (hydroxypropylcellulose) (HPC) 102 % of control | dose: 200.0 mg/kg/injection, schedule: Q01DX091 (ip), vehicle: Klucel (hydroxypropylcellulose) (HPC) 91 % of control | dose: 400.0 mg/kg/injection, schedule: Q01DX091 (ip), vehicle: Klucel (hydroxypropylcellulose) (HPC) 101 % of control

NNC(=O)N/N=C/c1ccccc1Cl
inactive: [1] 96 % of control | [2] 112 % of control

CCCCCCCCCCCCCCCC[n+]1cccc(C(=O)NCO)c1
inactive: dose: 6.25 mg/kg/injection, schedule: Q01DX009 (ip), vehicle: saline with Tween-80 100 % of control | dose: 12.5 mg/kg/injection, schedule: Q01DX009 (ip), vehicle: saline with Tween-80 104 % of control | [7] 104 % of control

O=Nc1ccc(NO)cc1
inactive: dose: 25.0 mg/kg/injection, schedule: Q04DX003 (ip), vehicle: Klucel (hydroxypropylcellulose) (HPC) 110 % of control | dose: 50.0 mg/kg/injection, schedule: Q04DX003 (ip), vehicle: Klucel (hydroxypropylcellulose) (HPC) 108 % of control | [3] 103 % of control | [4] 110 % of control | [5] 88 % of control

CCCCC(=O)c1c(O)c2ccccc2oc1=O
inactive: dose: 15.0 mg/kg/injection, schedule: Q01DX005 (ip), vehicle: saline with Tween-80 100 % of control | dose: 30.0 mg/kg/injection, schedule: Q01DX005 (ip), vehicle: saline with Tween-80 97 % of control | [6] 116 % of control and 94 % of control
